Measured values taken from article PMC10746112, “Synthesis and Pro-Apoptotic Effects of Nitrovinylanthracenes and Related Compounds in Chronic Lymphocytic Leukaemia (CLL) and Burkitt’s Lymphoma (BL)” (Molecules, 2023).

Legend:
Ramos BL cell line = assay: alamarBlue cell viability assay; format: cell-based; settings: Homo sapiens, 24 h
Description: (§1) Cells were seeded at a density of 2.5 × 10^4 cells/well (MCF-7, MDA-MB-231 cells), 1 × 10^4 cells/well (HL-60 cells), 1–5 × 10^4 cells per well (BL MUTU-I, DG-75 cells) and 2 × 10^5 cells/well [HG-3, PGA-1 (CLL cells)], Ramos, BJAB (BL cells) (200 μL per well), in 96-well plates. Cells were treated with the desired drug concentration for the appropriate time for each cell type, and the samples were incubated as required. alamarBlue (20 μL) was then added to each well and the samples further incubated in the dark at 37 °C for 4 h. Wells containing only reagent and cell culture medium in the absence of cells were used as blank controls. Ethanol was used as a vehicle, and cells were treated with 1% ethanol (v/v) in all experiments. The 96-well plates were analysed on a fluorescence plate reader (SpectraMax Gemini, Molecular Devices) (emission and excitement wavelengths of 590 nm and 544 nm, respectively), and the fluorescence was recorded. The decrease in cell viability was then calculated with reference to the vehicle samples (100% viability). EMEM medium with the addition of alamarBlue was used as a blank. Vehicle-treated cells were considered to be 100% viable, and the viabilities of each compound was calculated accordingly. […] All biochemical assays were performed in triplicate on at least three independent occasions, and the mean values were determined.

Bjab BL cell line = assay: alamarBlue cell viability assay; format: cell-based; settings: Homo sapiens, 24 h
Description: as §1

PGA-1 CLL cells = assay: Inhibitor studies (NAC, Z-VAD-FMK), Annexin V/PI FACS; format: cell-based; settings: 48 h
Description: (§2) Additional annexin V/PI FACS analysis was carried out in the presence of a reactive oxygen species (ROS) inhibitor (N-acetylcysteine) and a pan-caspase inhibitor (Z-VAD-FMK) in order to study their effects (if any) on the pro-apoptotic effects of 11h (Figure 6). […] Similar results were obtained in the HG-3 cell line at 2.5 µM (90% to 31%) and 5 µM of 11h (84% to 51%). In the presence of the caspase inhibitor Z-VAD-FMK ([…]), the apoptosis induced by compound 11h decreased from 63% to 25% at 2.5 µM and from 79% to 43% at 5 µM in the PGA1 cell line. Similar results were obtained in the HG-3 cell line at 2.5 µM (84% to 29%) and 5 µM (74% to 50%). These findings indicate that both caspases and ROS may be involved in the mechanism of apoptosis for compound 11h.
(§3) The HG-3 and PGA-1 CLL cells (5 × 10^4 cells/mL) were pre-treated at 37 °C with either 5 mM N-acetylcysteine (NAC) for 1 h or 40 μM caspase inhibitor (Z-VAD-FMK; MBL International, Co., Woburn, MA, USA) for 4 h prior to treatment with (11 h at 5 μM) for 48 h. Annexin V/PI FACS analysis was then carried out as described above in Section 4.5.

HG-3 CLL cells = assay: as above; format: cell-based; settings: 48 h
Description: as §2, §3

MUTU-1 cells = test system: MUTU-1 cells; design: method as in earlier work; settings: nitrostyrenes and taxol, MTT assay, reported data; cited from earlier work
[1] = test system: MCF-7 human breast cancer cells; assay: alamarBlue cell viability assay; settings: MCF7, 72 h
[2] = test system: HeLa cervical cancer cells; assay: alamarBlue cell viability assay; settings: Homo sapiens, 24 h
[3] = test system: MUTU-I Burkitt’s lymphoma cell line; settings: nitrostyrenes, 24 h, cited from earlier work
DG-75 BL cells = assay: Annexin V/PI apoptotic assay (FACS); format: cell-based; settings: 10 µM, 48 h, total (early + late) apoptosis
Description: The chemotherapeutic drug taxol was used as a positive control. The pro-apoptotic effects of the selected nitrostyrene compounds 11g, 11h, 11i, 11j, 11k and 11l (10 μM) were determined using FITC (fluorescein isothiocyanate), Annexin V/PI (propidium iodide) staining and FACS (fluorescence-activated cell sorting) analysis to characterise the mode of cellular death induced by the synthesised compounds. Four populations were produced in this assay: Annexin-V- and PI-negative (Q4, healthy cells), Annexin-V-positive and PI-negative (Q3, early apoptosis), Annexin-V- and PI-positive (Q2, late apoptosis) and Annexin-V-negative and PI-positive (Q1, necrosis), which were easily identified and quantified. Apoptosis was assessed as % total apoptosis by a combination of early and late apoptosis (Q3 and Q2, respectively). […] The identification of compounds that can induce apoptosis in cancer cells is required in the development of potential lead structures for anticancer drugs.
The BL cells DG-75 and MUTU-I (750,000) were treated at 37 °C with either vehicle (0.1% (v/v) EtOH), […] taxol (10 μM) and incubated for 24 h (MUTU-1) or 48 h (DG-75). The CLL cells PGA1 and HG3 (1 × 10^6 cells/mL) were treated at 37 °C with either vehicle (1% (v/v) DMSO) or the nitrostyrene compounds 19a (10 μM, 5 μM and 1 μM) and 19g, 19i, 19l and 19m (10 μM and 1 μM) for 48 h. The cells were then harvested by centrifugation at 400× g in a temperature-controlled Sorvall centrifuge and rinsed with 0.5 mL of Ca^2+ Annexin-V-binding buffer (0.1 M HEPES, pH 7.4; 0.14 M NaCl; 25 mM CaCl2). The samples were resuspended in 50 µL FITC Annexin V (diluted 1:33 in Ca^2+ Annexin V-binding buffer), incubated on ice for 10 min (protected from light), washed with Annexin-V-binding buffer and re-suspended in 500 µL of propidium iodide (PI) solution (0.5 µg/mL). The samples were analysed within 1 h using a BD Accuri C6 flow cytometer counting 10,000 cells and analysed using the FlowJo software (FlowJo LLC, Ashland, OR, USA) package.

Work on `C/C(=C\c1cccc(Cl)c1)[N+](=O)[O-]` [Compound 11h] yielded a viability at 1 µM (Ramos BL cell line; read-out: % Viable Cells Remaining Ramos 24 h 1 µM) of 27.2%, a viability at 10 µM (Ramos BL cell line; read-out: % Viable Cells Remaining Ramos 24 h 10 µM) of 5.1% and a viability at 1 µM (Bjab BL cell line; read-out: % Viable Cells Remaining Bjab 24 h 1 µM) of 90.1%. The viability at 10 µM (Bjab BL cell line; read-out: % Viable Cells Remaining Bjab 24 h 10 µM) was 46.2%, the apoptosis (PGA-1 CLL cells; PGA1, 2.5 µM compound, in the presence of NAC) was 21% and the apoptosis (PGA-1 CLL cells; PGA1, 2.5 µM compound, in the presence of Z-VAD-FMK) was 25%. The apoptosis (PGA-1 CLL cells; PGA1, 2.5 µM compound, without NAC) was 68%, the apoptosis (PGA-1 CLL cells; PGA1, 2.5 µM compound, without Z-VAD-FMK) was 63% and the apoptosis (PGA-1 CLL cells; PGA1, 5 µM compound, in the presence of NAC) was 33%. It also gave an apoptosis (PGA-1 CLL cells; PGA1, 5 µM compound, in the presence of Z-VAD-FMK) of 43%, an apoptosis (PGA-1 CLL cells; PGA1, 5 µM compound, without NAC) of 88% and an apoptosis (PGA-1 CLL cells; PGA1, 5 µM compound, without Z-VAD-FMK) of 79%. The apoptosis (HG-3 CLL cells; HG-3, 2.5 µM compound, in the presence of NAC) was 31%, the apoptosis (HG-3 CLL cells; HG-3, 2.5 µM compound, in the presence of Z-VAD-FMK) was 29% and the apoptosis (HG-3 CLL cells; HG-3, 2.5 µM compound, without NAC) was 90%. It also gave an apoptosis (HG-3 CLL cells; HG-3, 2.5 µM compound, without Z-VAD-FMK) of 84%, an apoptosis (HG-3 CLL cells; HG-3, 5 µM compound, in the presence of NAC) of 51% and an apoptosis (HG-3 CLL cells; HG-3, 5 µM compound, in the presence of Z-VAD-FMK) of 50%. For the same compound, the apoptosis (HG-3 CLL cells; HG-3, 5 µM compound, without NAC) was 84%, the apoptosis (HG-3 CLL cells; HG-3, 5 µM compound, without Z-VAD-FMK) was 74% and the IC50 (MUTU-1 cells) was 880 nM. The viability at 1 µM ([1]; read-out: % Viable Cells Remaining MCF-7 72 h 1 µM) was 94.3%, the viability at 10 µM ([1]; read-out: % Viable Cells Remaining MCF-7 72 h 10 µM) was 29.7% and the viability at 1 µM ([2]; read-out: % Viable Cells Remaining HeLa 24 h 1 µM) was 90.6%. For the same compound, the viability at 10 µM ([2]; read-out: % Viable Cells Remaining HeLa 24 h 10 µM) was 23.2%, the “% Viable Cells Remaining MUTU-1 24 h 1 µM” value ([3]; 1 µM) was 39.80% and the “% Viable Cells Remaining MUTU-1 24 h 10 µM” value ([3]; 10 µM) was 10.28%. For the same compound, the “DG-75 Apoptosis (%)” value (DG-75 BL cells) was 92.0%.
